{"source": "patent US20230141718A1", "about": "“METHODS OF TREATING GLIOBLASTOMA” (CELGENE QUANTICEL RESEARCH, INC., priority 2021, published 2023)", "key": {"[1]": {"tested_on": "CCR1 (C-C chemokine receptor type 1) mRNA", "test": "Blood CCR1 mRNA pharmacodynamics, CC-90010-GBM-001", "assay_type": "in vivo, human", "experimental": "The primary objectives of the study in this example were determination of tumor tissue concentration and plasma pharmacokinetics (PK) of Compound A. The secondary and exploratory objectives included safety, antitumor activity, cerebrospinal fluid concentration, and pharmacodynamics (PD).\nPatients were treated with Compound A at 30 mg daily on Day 1 to Day 4 prior to undergoing indicated tumor resection and to maintain platelet count above the minimum of […] recommended for surgery (Part A, preoperative treatment). Following recovery from surgery and a minimum of 4 weeks from the first dose of Compound A, subjects who were fit to continue were treated with Compound A at 45 mg on a 4 days on/24 days off schedule (180 mg per 28-day cycle). Maintenance treatment continued until disease progression, unacceptable toxicity, or withdrawal of consent.\nBlood HEXIM1 (hexamethylene bis-acetamide-inducible protein 1) mRNA was increased at 72-96 hours following first dose, and the percentage increase correlated with plasma concentration of Compound A at surgery. Tumor HEXIM1 RNA increased in 10 of 11 patients. Additionally, blood HEXIM1 mRNA expression was increased in all subjects at 72-96 hours following the first dose. Percentage HEXIM1 increase was related to plasma Compound A concentration at biopsy."}, "[2]": {"test": "Safety (TRAEs/TEAEs), CC-90010-GBM-002 Parts A and B", "assay_type": "in vivo", "source_text": "This was then followed by a break in treatment therapy, e.g., from 1 to up to 4 weeks. […] Adjuvant therapy cycles were repeated from 2 to 6 times. After adjuvant therapy, was a monotherapy treatment.\nThe demographics and characteristics of treated patients are described in the below table."}, "newly diagnosed GBM": {"tested_on": "newly diagnosed GBM", "test": "Efficacy (duration of treatment, PFS, best overall response), CC-90010-GBM-002 Part A", "assay_type": "in vivo, human", "source_text": "The Response Assessment in Neuro-Oncology criteria (RANO) is used to assess response to first-line treatment of glioblastoma. See, Leao, D. J. et al., American Journal of Neuroradiology 2019, 1-11. The RANO criteria divides response into four types of response based on imaging (MRI) and clinical features: (1) complete response (CR); (2) partial response (PR); (3) stable disease (SD); and (4) progression. For this assessment, a measurable disease is defined as bidimensional contrast-enhancing lesions with clearly defined margins, with 2 perpendicular diameters of at least 10 mm, visible on ≥2 axial slices. The nonmeasurable disease is defined as either unidimensional measurable lesions, masses with margins not clearly defined as frequently noted in the surgical margins, or lesions with maximal perpendicular diameters of <10 mm.\nThe study described in this example (CC-90010-GBM-002/NCT04324840) is a phase 1B dose-finding study investigating standard of care of Compound A in combination with TMZ with or without radiotherapy (RT) in subjects with newly diagnosed GBM. Part A of the study is escalating the oral doses of Compound A in combination with adjuvant TMZ to estimate the MTD and/or the RP2D of Compound A as adjuvant therapy and escalating the oral doses of Compound A in combination with concomitant TMZ+radiotherapy (RT) to estimate the MTD and/or the RP2D of Compound A as concomitant therapy. Part B of the study is the safety and efficacy of Compound A administered at or below the MTD determined for the adjuvant therapy (AT) and concomitant therapy (CT).\nFor adjuvant therapy, Compound A and TMZ was administered for 6 cycles, then Compound A as a monotherapy was administered in 28-day cycles until disease progression, start of a new anticancer therapy, or withdrawal of consent or physician's decision. For adjuvant therapy, Compound A was administered at 15, 30, and 45 mg 4 days on/24 days off and TMZ was administered at 150 or 200 mg/m^2 QD Days 1-5, followed by Compound A at 45 mg 4 days on/24 days off. For adjuvant therapy, part B, Compound A was administered at RP2D and TMZ was administered at 150 or 200 mg/m^2, followed by Compound A at 45 mg 4 days on/24 days off.\nFor concomitant therapy, Compound A, TMZ, and RT were administered for 6 weeks, then 4-week break, followed by adjuvant Compound A and TMZ for 6 cycles then Compound A monotherapy in 28-day cycles until disease progression, start of a new anticancer therapy, withdrawal of consent or physician's decision. For concomitant therapy, part A, Compound A was administered at 15 mg or 30 mg QD Days 1-4 (weeks 1,5), TMZ was administered at 75 mg/m^2/day QD, and RT was administered at 2 Gy QD×5 days/week, for 42 days. This was then followed by a break in treatment therapy, e.g., from 1 to up to 4 weeks. Thereafter, adjuvant therapy was initiated by administering Compound A at 30 mg or 45 mg and TMZ at 150 or 200 mg/m^2 QD Days 1-5 of a 28-day cycle. Adjuvant therapy cycles were repeated from 2 to 6 times. After adjuvant therapy, was a monotherapy treatment. Monotherapy comprised administering Compound A at 45 mg 4 days on/24 days off.\nFor Part A, eighteen patients were enrolled in the adjuvant cohort and received adjuvant Compound A 15 mg/day (n=5), 30 mg/day (n=6), or 45 mg/day (n=7) 4 days on/24 days off plus TMZ followed by Compound A monotherapy 45 mg/day 4 days on/24 days off. Fourteen patients were enrolled in the concomitant cohort and received concomitant Compound A 15 mg/day (n=6) or 30 mg/day (n=8) 4 days on/24 days off in combination with TMZ and RT, followed by adjuvant Compound A 30 mg/day 4 days on/24 days off and Compound A monotherapy 45 mg/day 4 days on/24 days off. The demographics and characteristics of treated patients are described in the below table."}}}
{"smiles": "Cn1cc(-c2cc(S(C)(=O)=O)ccc2OCC2CC2)c2ccccc2c1=O", "note": "[Compound A, 4-[2-(cyclopropylmethoxy)-5-methylsulfonylphenyl]-2-methylisoquinolin-1-one]", "values": [{"measurement": "Blood CCR1 mRNA reduction", "setting": "[1]; after Dose 4", "value": "≥ 50", "unit": "%"}, {"measurement": "Blood CCR1 mRNA, % of baseline", "setting": "[1]; after Dose 4, standard deviation 28.5", "value": 45.8, "unit": "%"}, {"measurement": "CCR1 downregulation", "setting": "[1]; following first and last dose of ≥30 mg, cycle 1, CC-90010-GBM-001 (FIG. 5)", "value": "≥ 50", "unit": "%"}, {"measurement": "patients with Grade 3/4 TRAEs", "setting": "[2]; Part A adjuvant cohort", "value": 56, "unit": "%"}, {"measurement": "patients with TEAEs leading to treatment discontinuation", "setting": "[2]; Part A adjuvant cohort", "value": 11, "unit": "%"}, {"measurement": "patients with any-grade gastrointestinal TRAEs", "setting": "[2]; Part A adjuvant cohort", "value": 78, "unit": "%"}, {"measurement": "patients with grade 3/4 diarrhea", "setting": "[2]; Part A adjuvant cohort", "value": "one"}, {"measurement": "patients with thrombocytopenia TRAE, any grade", "setting": "[2]; Part A adjuvant cohort", "value": 72, "unit": "%"}, {"measurement": "patients with thrombocytopenia TRAE, grade 3/4", "setting": "[2]; Part A adjuvant cohort", "value": 50, "unit": "%"}, {"measurement": "patients with any-grade TRAEs", "setting": "[2]; Part A adjuvant cohort (Compound A + TMZ)", "value": 94, "unit": "%"}, {"measurement": "patients with Grade 3/4 TRAEs", "setting": "[2]; Part A concomitant cohort", "value": 64, "unit": "%"}, {"measurement": "patients with TEAEs leading to treatment discontinuation", "setting": "[2]; Part A concomitant cohort", "value": 7, "unit": "%"}, {"measurement": "patients with gastrointestinal TRAEs", "setting": "[2]; Part A concomitant cohort", "value": 93, "unit": "%"}, {"measurement": "patients with grade 3/4 TRAE of diarrhea", "setting": "[2]; Part A concomitant cohort", "value": 7, "unit": "%"}, {"measurement": "patients with nausea, any-grade TRAE", "setting": "[2]; Part A concomitant cohort", "value": 79, "unit": "%"}, {"measurement": "patients with thrombocytopenia, any grade", "setting": "[2]; Part A concomitant cohort", "value": 71, "unit": "%"}, {"measurement": "patients with thrombocytopenia, grade 3/4", "setting": "[2]; Part A concomitant cohort", "value": 50, "unit": "%"}, {"measurement": "patients with any-grade TRAEs", "setting": "[2]; Part A concomitant cohort (Compound A + TMZ + RT)", "value": 100, "unit": "%"}, {"measurement": "treatment-related deaths", "setting": "[2]; Part A, both cohorts", "value": "no treatment-related deaths"}, {"measurement": "patients with Grade 3/4 TRAEs related to Compound A", "setting": "[2]; Part B", "value": 29, "unit": "%"}, {"measurement": "patients with Grade 3/4 neutropenia related to Compound A", "setting": "[2]; Part B", "value": 18, "unit": "%"}, {"measurement": "patients with Grade 3/4 thrombocytopenia related to Compound A", "setting": "[2]; Part B", "value": 18, "unit": "%"}, {"measurement": "patients with TRAE leading to treatment discontinuation", "setting": "[2]; Part B arm A", "value": 4, "unit": "%"}, {"measurement": "patients with TRAEs related to Compound A", "setting": "[2]; Part B arm A", "value": 86, "unit": "%"}, {"measurement": "patients with diarrhea related to Compound A", "setting": "[2]; Part B arm A", "value": 43, "unit": "%"}, {"measurement": "patients with nausea related to Compound A", "setting": "[2]; Part B arm A", "value": 46, "unit": "%"}, {"measurement": "patients with thrombocytopenia related to Compound A", "setting": "[2]; Part B arm A", "value": 46, "unit": "%"}, {"measurement": "tolerability in long-term follow-up", "setting": "[2]; adjuvant Compound A plus TMZ and concomitant Compound A plus TMZ and RT", "value": "well tolerated"}, {"measurement": "best overall response: CR", "setting": "newly diagnosed GBM; adjuvant cohort", "value": 6, "unit": "%"}, {"measurement": "best overall response: NE", "setting": "newly diagnosed GBM; adjuvant cohort", "value": 6, "unit": "%"}, {"measurement": "best overall response: PD", "setting": "newly diagnosed GBM; adjuvant cohort", "value": 11, "unit": "%"}, {"measurement": "best overall response: SD", "setting": "newly diagnosed GBM; adjuvant cohort", "value": 78, "unit": "%"}, {"measurement": "median PFS", "setting": "newly diagnosed GBM; adjuvant cohort, 95% CI 3.9-NE", "value": 7.7, "unit": "months"}, {"measurement": "progression-free survival (PFS) rate at 6 months", "setting": "newly diagnosed GBM; adjuvant cohort, 95% CI 31.1-77.3", "value": 57.8, "unit": "%"}, {"measurement": "best overall response: CR", "setting": "newly diagnosed GBM; concomitant cohort", "value": 7, "unit": "%"}, {"measurement": "best overall response: NE", "setting": "newly diagnosed GBM; concomitant cohort", "value": 7, "unit": "%"}, {"measurement": "best overall response: PD", "setting": "newly diagnosed GBM; concomitant cohort", "value": 7, "unit": "%"}, {"measurement": "best overall response: SD", "setting": "newly diagnosed GBM; concomitant cohort", "value": 79, "unit": "%"}, {"measurement": "median PFS", "setting": "newly diagnosed GBM; concomitant cohort, 95% CI 5.2-14.0", "value": 12.3, "unit": "months"}, {"measurement": "PFS rate at 6 months", "setting": "newly diagnosed GBM; concomitant cohort, 95% CI 37.3-87.2", "value": 69.2, "unit": "%"}]}
